Source: patent US8557960B2, “Peptide for augmenting and expression of BDNF and pharmaceutical composition for prevention and treatment of neurodegenerative diseases including Alzheimer's disease or Parkinson's disease, comprising the same” (Sungkyunkwan University, priority 2009, dated 2013)

Tested on: BDNF
Assay: Assay for BDNF expression in dopamine-reactive human cell line SH-SY5Y (Western blotting)
Assay type: cell-based
Conditions: SH-SY5Y cells, 12 hrs treatment, FIG. 2
Experimental: SH-SY5Y cells were seeded at a density of 2×10^5 cells/well into 6-well plates (NUNC) and incubated at 34° C. for 12 hrs in a 5% CO2 incubator and then for an additional 12 hrs in the presence of one of NP 2 to 9 at a concentration of 1 pM, 10 pM, 100 pM, 1 nM, 10 nM, 100 nM, or 1 μM. The cells in each well were washed twice with 1 mL of 1×PBS […], treated with 10 μL of protease inhibitor (Amersham) per 1 mL of RIPA, and collected into 1.5 mL tubes using a cell lifter (Corning). After centrifugation at 4° C. and 9000 rpm for 5 min (MiCRO 17 TR, Hnil Science Industrial Co., Ltd.) to pelletize cell membranes, the supernatants containing proteins were transferred into new 1.5 mL tubes and quantitatively measured for protein level using a Bradford assay.
20 μL of each sample was loaded onto 15% acrylamide gel, prepared using a 1.5 mm Western blotting gel caster (Bio-Rad), and run for 2.5 hrs in the presence of an electric field of 100 V using an electrophoresis power supply (EPS 601, Amersham). The proteins run on the gel were transferred onto a PVDF membrane (Polyvinylidene Difluoride, Millipore) at 400 mA for 2.5 hrs in a transfer tank (Mighty small transphor, Amersham) using an electrophoresis power supply (EPS301, GE healthcare). The PVDF membrane was blocked for 1 hr with 7% skim milk (Difco™ Skim milk, BD) and incubated overnight with a mouse anti-human BDNF monoclonal antibody at a dilution ratio of 1:500. Thereafter, the membrane was washed for 2 hrs 0.05% TBST (Tris-Buffered Saline Tween 20) (this buffer was replaced every hour) and incubated for 1 hr with goat anti-mouse IgG:HRP (IgG:Horseradish Peroxidase Conjugate, SC-2005, Santa Cruz Biotechnology) at a ratio of 1:500. After washing the membrane with 0.05% TBST for 2 hrs (the buffer was replaced every hour), proteins were detected using a chemiluminescent HRP substrate kit (Millipore), and the results are shown in FIG. 2.

Substance	BDNF expression (relative level of BDNF to β-actin vs control)
Met-Asp-Gly [NP-5]	even a very small amount of NP-5 and NP-6 could augment BDNF expression
Met-Thr-Gly [NP-6]	even a very small amount of NP-5 and NP-6 could augment BDNF expression
Val-Gly [NP-9]	used at the same or less than was the amount of the tripeptides so as to induce BDNF expression
